# Peptide text beside a SMILES is read from it. * marks the point of attachment. Cbz = O=C(OCc1ccccc1)*; CH2Cl = ClC*; CH2F = FC*
# Assays:
# whole blood samples [1] = test: 18S DNA duplex real time PCR assay: increase of ribosomal 18S DNA (ccfDNA) in plasma of stored whole blood; format: cell-based, human; conditions: for increase of ribosomal 18S DNA in plasma: Example 1, 20 μM in whole blood; for increase of ribosomal 18S DNA in plasma / increase of genomic DNA in plasma: within 7 days of storage at RT; for increase of genomic DNA in plasma: Example 2; for change of ccfDNA level in plasma (day X copies/day 0 copies): Example 8, RT up to 6 days, DHA 0.5 M, inositol 0.05 M, maltitol 0.01 M, mannitol
# Description: (§1) A test system was designed, wherein cell-containing biological samples, here whole blood samples, were incubated at room temperature (RT) for up to 6 or 7 days. Therein, the sample stabilizing properties of the additives of the present invention were tested on day 0, day 3 and day 6/7 the samples.
# (§2) The circulating, extracellular nucleic acids were purified from the obtained plasma samples using the QIAamp® Circulating NA Kit (according to the handbook). In brief: • 10 ml sample input; • lysis: 1 ml Proteinase K and 8 ml Buffer ACL (QIAGEN) • binding: 18 ml Buffer ACB (QIAGEN) • wash-steps: unchanged and according to handbook • elution in 60 μl Buffer AVE (QIAGEN)
# 4.2. DNA quantification with a real time PCR assay, sensitive for DNA degradation (target: 500 and 66 bp long ribosomal 18S DNA coding sequences).
# (samples were diluted 1:10 before amplification)
# Detection of ribosomal 18S DNA by quantitative real-time PCR, makes it possible to calculate the x-fold increase of DNA from day 0 to day 3 or 7 (calculation: division of day 3 (or 7) copies by day 0 copies).
# The division of short amplicon copy number by long amplicon copy number (66 bp/500 bp) indicates whether the amount of detected short or long amplicons changes over time in a similar way. A decrease of this ratio implies a stronger release of longer rather than of shorter DNA molecules and can be interpreted as release of high molecular weight genomic DNA from blood cells.
# On day 0, day 3 and day 6, replicates were processed as follows. […] The cleared plasma fraction was collected and the extracellular nucleic acids were isolated using the QIAamp Circulating nucleic acid kit (1 ml input material, 60 μl elution volume). […] Values that are close to 1 imply preserved levels of ccfDNA. The higher the value, the less stabilization is achieved.
# whole blood samples [2] = test: Chip gel electrophoresis of DNA isolated from plasma of stored whole blood (DNA size distribution, blood cell stability/DNA release); format: cell-based; conditions: for ladder-like pattern (release/fragmentation of genomic DNA): Example 1, 20 μM in 10 ml K2E whole blood, RT, day 3 and day 7, vs DMSO control and K2E blood; for genomic DNA release/fragmentation: Example 2, day 7, RT
# Description: as §1, with “samples. The samples were processed according to the following protocols, where applicable (for details, see also the specific examples in the results section):” for “samples.”
# To separate the blood plasma from the whole blood, the blood samples were centrifuged for 15 min at 5000 rpm, and the obtained plasma samples were again centrifuged for 10 min at 16,000×g at 4° C.
# as §2
# 4.1. Measurement of the blood cell stability/DNA release by the determination of DNA size distribution using a chip gel electrophoresis (2100 Bioanalyzer; Agilent Technologies; Inc., USA) according to manufacturer's instruction (see handbook Agilent DNA 7500 and DNA 12000 Kit Guide), but 1.5 μl instead of 1 μl sample were transferred to the wells.
# The eluted circulating cell-free DNA was separated by size using chip gel electrophoresis (for details on the method see above, I, 4.1). […] The DMSO control and the K2E blood (not treated according to the teachings of the present invention) show the same ladder-like pattern of bands. This pattern occurs in samples where apoptosis takes place. During apoptosis, endonucleases degrade genomic DNA at inter-nucleosomal linker regions and produce DNA fragments of circa 180 bp or multiples of 180 bp. Thus, apoptosis occurs in samples which show a clear ladder-like pattern. Furthermore, the strength (darkness) of the pattern is decisive. The darker the bands, the more genomic DNA was released from the cells and thus contaminates the extracellular nucleic acid population.
# fragmentin 2 = target: T1, fragmentin 2 (Rattus norvegicus, UniProt P18291); conditions: read-out: ID50 (the source's name); cited from earlier work
# T1 sequence (P18291 21-248): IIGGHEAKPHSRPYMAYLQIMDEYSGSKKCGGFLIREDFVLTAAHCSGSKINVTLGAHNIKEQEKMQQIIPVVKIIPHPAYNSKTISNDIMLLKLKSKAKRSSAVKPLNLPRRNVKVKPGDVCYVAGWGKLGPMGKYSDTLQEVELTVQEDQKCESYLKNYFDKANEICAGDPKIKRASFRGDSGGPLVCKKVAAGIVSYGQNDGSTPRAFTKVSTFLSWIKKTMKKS
# calpain II = target: T2, calpain II (Homo sapiens, UniProt P17655); conditions: irreversible inhibitor; cited from earlier work
# T2 sequence (P17655 1-700): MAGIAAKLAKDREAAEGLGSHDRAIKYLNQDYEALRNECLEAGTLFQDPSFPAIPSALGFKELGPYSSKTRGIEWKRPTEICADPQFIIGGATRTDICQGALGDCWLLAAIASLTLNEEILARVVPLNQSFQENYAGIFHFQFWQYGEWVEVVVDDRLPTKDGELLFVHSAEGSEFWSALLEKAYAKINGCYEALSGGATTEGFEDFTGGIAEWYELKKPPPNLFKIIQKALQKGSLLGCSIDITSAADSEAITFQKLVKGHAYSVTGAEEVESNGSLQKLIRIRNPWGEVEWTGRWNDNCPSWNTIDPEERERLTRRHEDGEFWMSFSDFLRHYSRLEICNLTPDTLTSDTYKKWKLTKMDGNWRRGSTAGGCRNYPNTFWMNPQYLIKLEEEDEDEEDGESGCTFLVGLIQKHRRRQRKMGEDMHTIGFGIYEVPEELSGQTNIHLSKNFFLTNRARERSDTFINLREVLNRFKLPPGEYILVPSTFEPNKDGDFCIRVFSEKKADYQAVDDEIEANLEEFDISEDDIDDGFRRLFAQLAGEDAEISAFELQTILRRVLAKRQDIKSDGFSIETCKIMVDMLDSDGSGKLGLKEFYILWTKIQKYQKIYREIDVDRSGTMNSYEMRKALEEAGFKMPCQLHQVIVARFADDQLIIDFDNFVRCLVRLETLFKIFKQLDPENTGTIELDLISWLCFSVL
# T2 sequence (P04632 1-268 partner): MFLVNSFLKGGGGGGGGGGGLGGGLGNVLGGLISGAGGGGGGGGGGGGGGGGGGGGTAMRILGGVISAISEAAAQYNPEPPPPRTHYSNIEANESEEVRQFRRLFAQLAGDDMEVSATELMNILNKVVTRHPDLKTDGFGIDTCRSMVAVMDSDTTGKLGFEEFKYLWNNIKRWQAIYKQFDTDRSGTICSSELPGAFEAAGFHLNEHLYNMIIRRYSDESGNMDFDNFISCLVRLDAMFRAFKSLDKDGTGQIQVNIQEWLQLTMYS
# cathepsin L = cathepsin L (Homo sapiens, UniProt P07711); conditions: cited from earlier work
# cathepsin L, sequence (P07711 114-333, species assumed): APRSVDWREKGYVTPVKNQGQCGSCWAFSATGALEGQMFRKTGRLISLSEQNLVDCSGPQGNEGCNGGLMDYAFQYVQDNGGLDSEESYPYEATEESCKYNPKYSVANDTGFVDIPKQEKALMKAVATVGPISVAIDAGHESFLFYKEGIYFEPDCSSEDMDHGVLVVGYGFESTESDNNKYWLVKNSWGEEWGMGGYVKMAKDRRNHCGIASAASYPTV
# [3] = administered in rats in vivo; cited from earlier work
molecule,measurement,setting,value
"CC(C)C(NC(=O)c1ccc2ccccc2n1)C(=O)NC(CC(=O)O)C(=O)COc1c(F)cccc1F (stereo not drawn) [Q-VD-OPh, Quinoline-Val-Asp-CH2-OPH]",increase of ribosomal 18S DNA in plasma,whole blood samples [1],reduced increase of DNA
same,increase of genomic DNA in plasma,whole blood samples [1]; 1 μM with 21 mM glucose,only a minor increase
same,increase of genomic DNA in plasma,whole blood samples [1]; 4 μM with 21 mM glucose,≤ 4 fold
same,ladder-like pattern (release/fragmentation of genomic DNA),whole blood samples [2],significantly reduced ladder-like patterns
same,genomic DNA release/fragmentation,whole blood samples [2]; 1 μM with 21.4 mM glucose,significantly reduced
same,genomic DNA release/fragmentation,whole blood samples [2]; 4 μM with 21.4 mM glucose,effect is improved
"OCC(O)C(O)C(O)C(O)CO (stereo not drawn) [mannitol, Hexane-1,2,3,4,5,6-hexol]",change of ccfDNA level in plasma (day X copies/day 0 copies),whole blood samples [1],stabilization effects over 3 days
"CC(NC(=O)OCc1ccccc1)C(=O)NC(C)C(=O)NC(CC(=O)O)C(=O)CCl (stereo not drawn) [Granzyme B Inhibitor I, Z-Ala-Ala-Asp-CH2Cl] (Cbz-Ala-Ala-Asp-CH2Cl; configuration not given here)",IC50,fragmentin 2,300 nM
"O[C@H]1[C@H](O)[C@@H](O)[C@H](O)[C@@H](O)[C@H]1O [inositol, Cyclohexane-1,2,3,4,5,6-geksol]",change of ccfDNA level in plasma (day X copies/day 0 copies),whole blood samples [1],suitable alternatives
"CC(C)C[C@H](NC(=O)OCc1ccccc1)C(=O)N[C@@H](CC(C)C)C(=O)N[C@@H](Cc1ccc(O)cc1)C(=O)CF [Calpain Inhibitor IV, Z-Leu-Leu-Tyr-CH2F] (Cbz-Leu-Leu-Tyr-CH2F)",k2,calpain II,"28,900 M-1s-1). Also acts as an inhibitor of cathepsin L (k2 ="
same,k2,cathepsin L,"680,000 M-1s-1)."
Cbz-Val-Ala-Asp(OMe)-CH2F,increase of ribosomal 18S DNA in plasma,whole blood samples [1],more prominent on day 7
same,ladder-like pattern (release/fragmentation of genomic DNA),whole blood samples [2],reduced ladder-like pattern
"N=c1sc2c(n1CC(=O)c1ccc([N+](=O)[O-])cc1)CCCC2 [Pifithrin-α, ρ-Nitro]",more potent than Pifithrin-α in vivo,[3],100-fold more potent than Pifithrin-α when adminstered in rats in
"OC[C@@H](O)[C@@H](O[C@H]1O[C@H](CO)[C@@H](O)[C@H](O)[C@H]1O)[C@H](O)[C@@H](O)CO [maltitol, 4-O-α-D-Glucopyranosyl-D-glucitol]",change of ccfDNA level in plasma (day X copies/day 0 copies),whole blood samples [1],suitable alternatives

# Source: patent US12110533B2, “Stabilisation and isolation of extracellular nucleic acids” (Qiagen GmbH, priority 2011, dated 2024)
